According to patent US11110084B2, “Opioid formulations” (Camurus AB, priority 2012, dated 2021):

Settings: disodium fluorescein 5 mg/g, 0.1 g in 2 ml PBS

O=C([O-])c1ccccc1-c1c2ccc(=O)cc-2oc2cc([O-])ccc12.[Na+].[Na+] [Fluo, disodium fluorescein]
% release (37° C.) 72 h: about 0.4%
